Laboratory results taken from patent US20230099344A1, “COMPOUNDS AND METHODS FOR THE TARGETED DEGRADATION OF IRAK-4” (Arvinas Operations, Inc., priority 2021, published 2023).
Where two headings read alike, the source gives them in different places.

Tests used:
Format in all cases: cell-based
[1] = system: IL6; test: IL-1β stimulated IL6 inhibition assay in PBMC; conditions: human PBMCs, IL-1β stimulation, compound overnight, IL6 by MSD after 24 hrs; for IC50: read-out: IL1β stim IL6 inhibition IC50; for Emax: read-out: IL1β stim IL6 inhibition Ymax
Experimental: (§1) IL-1β, LPS, or R848 Stimulated IL6 Inhibition and IL-1β Stimulated IL8 Inhibition Assay
(§2) Human PBMC cells were seeded at 2.0×10^6 cells/mL, treated with compound overnight, and dosed with the EC50 concentration of each stimulant (either IL-1B. LPS, or R848) was determined for each donor. After 24 hrs, media was collected and analyzed by MSD for IL6 and/or IL8 levels.

[2] = system: IL8; test: IL-1β stimulated IL8 inhibition assay in PBMC; conditions: human PBMCs, IL-1β stimulation, compound overnight, IL8 by MSD after 24 hrs; for IC50: read-out: IL1β stim IL8 inhibition IC50; for Emax: read-out: IL1β stim IL8 inhibition Ymax
Experimental: as §1, §2

[3] = molecular target: T1, IRAK-4 (Homo sapiens, UniProt Q9NWZ3); test: IRAK-4 ELISA, PBMC degradation; parameters: endogenous in cells; host or cells: PBMC; conditions: treated overnight
T1 sequence (Q9NWZ3 1-460): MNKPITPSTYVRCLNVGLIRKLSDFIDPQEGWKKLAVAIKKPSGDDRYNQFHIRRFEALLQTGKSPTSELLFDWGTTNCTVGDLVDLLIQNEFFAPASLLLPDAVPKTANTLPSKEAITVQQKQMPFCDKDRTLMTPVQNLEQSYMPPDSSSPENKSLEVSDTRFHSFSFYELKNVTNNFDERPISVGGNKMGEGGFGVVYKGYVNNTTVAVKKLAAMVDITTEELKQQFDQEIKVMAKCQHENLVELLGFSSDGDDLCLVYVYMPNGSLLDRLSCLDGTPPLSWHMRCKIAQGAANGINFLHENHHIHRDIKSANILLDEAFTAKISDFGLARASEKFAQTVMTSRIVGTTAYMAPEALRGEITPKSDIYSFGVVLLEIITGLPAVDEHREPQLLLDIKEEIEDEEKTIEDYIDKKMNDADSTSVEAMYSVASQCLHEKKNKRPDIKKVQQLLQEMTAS
In short: (§3)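 Overnight compound treatment, started on the day of plating, of OCI-Ly10 (1×10^6/ml) and PBMC (2×10^6/ml) cultures. Lysates are collected and IRAK-4 content is read by sandwich ELISA.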

[4] = molecular target: T1, IRAK-4; test: IRAK-4 ELISA, OCI-Ly10 degradation; parameters: endogenous in cells; conditions: treated overnight; for Dmax: OCI-Ly10, OCI-Ly10 cells
In short: as §3

SMILES | IC50 ([1]; Homo sapiens, PBMC, 24 h) [nM] | Emax ([1]; PBMC) [%] | IC50 [2] [nM] | Emax [2] [%] | DC50 [3] [nM] | Dmax [3] [%] | PBMC DC90 [3] | Dmax [4] [%] | DC50 ([4]; OCI-Ly10 cells) [nM] | IL1β stim IL6 inhibition Ymax [1] | IC50 [1] [nM] | PBMC Dmax [3] | OCI-LY10 Dmax ([4]; OCI-Ly10 cells)
CC(C)Oc1cc2c(cc1NC(=O)c1cnn3cccnc13)CN(C1CCN(CC3CN(c4ccc5c(c4)CN(C4CCC(=O)NC4=O)C5=O)C3)CC1)C2=O (centres unmarked) [Example 4] | < 10 | ≥ 90 | 10 to 50 | 80 to 90 | < 1 | ≥ 90 | 4 nM | ≥ 90 | < 10 |  |  |  | 
CC(C)Oc1cc2c(cc1NC(=O)c1cnn3cccnc13)CN(C1CCN(CC3CN(c4ccc5c(c4)C(=O)N(C4CCC(=O)NC4=O)C5=O)C3)CC1)C2=O (centres unmarked) [Example 5] | 10 to 50 | 80 to 90 | 50 to 100 | 80 to 90 | 1 to 5 | 80 to 90 | 5 nM | ≥ 90 | < 10 |  |  |  | 
Cc1cnc2c(C(=O)Nc3cc4c(cc3OC(C)C)C(=O)N(C3CCN(CCc5ccc6c(c5)CN(C5CCC(=O)NC5=O)C6=O)CC3)C4)cnn2c1 (centres unmarked) [Example 9] | < 10 | ≥ 90 | 10 to 50 | 70 to 80 | 1 to 5 | 80 to 90 | A (A represents a DC90 value <10.0 nM) | ≥ 90 | < 10 |  |  |  | 
COc1cc(N2CCC(CN3CCC(N4Cc5cc(NC(=O)c6cnn7cccnc67)c(OC(C)C)cc5C4=O)CC3)CC2)cc2c1C(=O)N(C1CCC(=O)NC1=O)C2=O (centres unmarked) [Example 12] | 10 to 50 | 80 to 90 | 10 to 50 | < 70 | < 1 | ≥ 90 | A (A represents a DC90 value <10.0 nM) | ≥ 90 | < 10 |  |  |  | 
O=C1CCC(N2Cc3cc(N4CC(CN5CCC(N6Cc7cc(NC(=O)c8cnn9cccnc89)c(OCC8CC8)cc7C6=O)CC5)C4)ccc3C2=O)C(=O)N1 (centres unmarked) [Example 29] | 10 to 50 | < 70 | 50 to 100 | 70 to 80 | 1 to 5 | 80 to 90 | A (A represents a DC90 value <10.0 nM) | 70 to 80 | < 10 |  |  |  | 
O=C1CCC(N2C(=O)c3ccc(N4CCC(CN5CCC(N6Cc7cc(NC(=O)c8cnn9cccnc89)c(OCC8CC8)cc7C6=O)CC5)CC4)cc3C2=O)C(=O)N1 (centres unmarked) [Example 30] | 10 to 50 | ≥ 90 | ≥ 100 |  | < 1 | 80 to 90 | A (A represents a DC90 value <10.0 nM) | ≥ 90 | < 10 |  |  |  | 
O=C1CCC(N2C(=O)c3ccc(N4CCC(CN5CCC(N6Cc7cc(NC(=O)c8cnn9cccnc89)c(N8CCOCC8)cc7C6=O)CC5)CC4)cc3C2=O)C(=O)N1 (centres unmarked) [Example 32] |  |  | ≥ 100 | ≥ 90 | 1 to 5 |  | C (C represents a DC90 value ≥25.0 nM and <50 nM) |  | < 10 | A (A represents a Ymax value ≥90) | 10 to 50 | C (C represents a Dmax value ≥70 and <80) | D (D represents a Dmax value <70)
O=C1CCC(N2Cc3cc(CCN4CCC(N5Cc6cc(NC(=O)c7cnn8cccnc78)c(N7CCOCC7)cc6C5=O)CC4)ccc3C2=O)C(=O)N1 (centres unmarked) [Example 36] | 10 to 50 | 70 to 80 | ≥ 100 |  | 1 to 5 | < 70 | B (B represents a DC90 value ≥10.0 nM and <25.0 nM) | < 70 | < 10 |  |  |  | 
O=C1CCC(N2C(=O)c3ccc(N4CCC(CN5CCC(N6Cc7cc(NC(=O)c8cnn9cccnc89)c(N8CCC(N9CCC9)CC8)cc7C6=O)CC5)CC4)cc3C2=O)C(=O)N1 (centres unmarked) [Example 38] | < 10 | ≥ 90 | ≥ 100 | ≥ 90 | 1 to 5 | ≥ 90 | A (A represents a DC90 value <10.0 nM) | ≥ 90 | < 10 |  |  |  | 
CC(C)Oc1cc2c(cc1NC(=O)c1cnn3cccnc13)CN(C1CCN(C3CN(c4ccc5c(c4)C(=O)N(C4CCC(=O)NC4=O)C5=O)C3)CC1)C2=O (centres unmarked) [Example 59] | 10 to 50 | ≥ 90 | 50 to 100 | 70 to 80 | 1 to 5 | ≥ 90 | B (B represents a DC90 value ≥10.0 nM and <25.0 nM) | ≥ 90 | < 10 |  |  |  | 
CC(C)Oc1cc2c(cc1NC(=O)c1cnn3cccnc13)CN(C1CCN(C3CCN(c4ccc5c(c4)C(=O)N(C4CCC(=O)NC4=O)C5=O)CC3)CC1)C2=O (centres unmarked) [Example 64] | 10 to 50 | 80 to 90 | 50 to 100 | < 70 | < 1 | ≥ 90 | A (A represents a DC90 value <10.0 nM) | ≥ 90 | < 10 |  |  |  | 
CC(C)Oc1cc2c(cc1NC(=O)c1cnn3cccnc13)CN([C@H]1CC[C@@H](N3CC4(CN(c5ccc6c(c5)C(=O)N(C5CCC(=O)NC5=O)C6=O)C4)C3)CC1)C2=O (some centres unmarked) [Example 69] | 10 to 50 | ≥ 90 | 10 to 50 | 80 to 90 | 1 to 5 | ≥ 90 | A (A represents a DC90 value <10.0 nM) | ≥ 90 | < 10 |  |  |  | 
CN(C1CN(c2ccc3c(c2)C(=O)N(C2CCC(=O)NC2=O)C3=O)C1)[C@H]1CC[C@H](n2cc3cc(NC(=O)c4cnn5cccnc45)c(OCC4CC4)cc3n2)CC1 (some centres unmarked) [Example 336] | < 10 | ≥ 90 | 10 to 50 | 70 to 80 | < 1 | ≥ 90 | A (A represents a DC90 value <10.0 nM) |  |  |  |  |  | 
CC(C)Oc1nc2c(cc1NC(=O)c1cnn3cccnc13)CN(C1CCN(CC3CN(c4ccc5c(c4)C(=O)N(C4CCC(=O)NC4=O)C5=O)C3)CC1)C2=O (centres unmarked) [Example 398] | < 10 | ≥ 90 | ≥ 100 |  | < 1 | ≥ 90 | A (A represents a DC90 value <10.0 nM) |  |  |  |  |  | 
CC(C)Oc1nc2c(cc1NC(=O)c1cnn3cccnc13)CN(C1CCN(CCc3ccc4c(c3)C(=O)N(C3CCC(=O)NC3=O)C4=O)CC1)C2=O (centres unmarked) [Example 400] | ≥ 100 | ≥ 90 | ≥ 100 |  | 5 to 10 | 80 to 90 | D (D represents a DC90 value ≥50 nM) |  |  |  |  |  | 
